# EP1078629A2 (GLAXO GROUP LIMITED, priority 1989, dated 1991)
# Columns and labels:
# [1] = test system: zymosan-induced PMN cell accumulation in guinea-pig skin; assay: Zymosan-induced PMN cell accumulation in skin; conditions: for % Inhibition of PMN cell accumulation: together with zymosan 0.2mg.site^-1
# [2] = test system: Zymosan-induced Granylocyte-dependent PPE; assay: Zymosan-induced granulocyte-dependent plasma protein extravasation in skin; format: in vivo, guinea-pig; set-up: Zymosan-induced Granylocyte-dependent PPE: unit not given here
# Protocol: (§1) The effect of β2-adrenoreceptor agonists on granulocyte-dependent and independent vascular permeability induced in guinea-pig skin, by intradermal challenge with zymosan and histamine respectively, was evaluated using a modification of the method of Issekutz Lab. Invest .,45 , 435-441(1981).
# (§2) Plasma protein extravasation (PPE) was calculated as µl plasma equivalents.
# [3] = test system: Histamine-induced Granulocyte Independent PPE; assay: Histamine-induced granulocyte-independent plasma protein extravasation in skin; format: in vivo, guinea-pig
# Protocol: as §1, §2
# histamine-induced PPE = assay: Histamine-induced plasma protein extravasation in the lung; format: in vivo, guinea-pigs
# Description: Briefly, guinea-pigs (male Dunkin Hartley, 300-400g) were given an intracardiac injection of iodinated human serum albumin (0.5µCi) in heparinised saline (10U.ml^-1).
# [4] = test system: LPS-induced neutrophil accumulation; assay: LPS-induced neutrophil accumulation in bronchoalveolar lavage fluid; format: in vivo, guinea-pigs; conditions: 0.1 mg.ml^-1 aerosol 30 min prior to LPS 100µg.ml^-1; 4 hours after challenge (LPS alone 141.3 ± 33.3, baseline 3.8 ± 1.2)
# Protocol: (§3) Briefly, guinea-pigs (male Dunkin Hartley, 300-400g) were exposed to an aerosol of 100µg.ml^-1 E. coli lipopolysaccharide (LPS;026:B6, Sigma Ltd) or 100µg.ml^-1 platelet activating factor (PAF; Sigma Ltd.) for 10 min. […] The total leukocyte count of the bronchoalveolar lavage fluid (BALF) recovered was determined. A cytospin preparation was prepared from the BALF, fixed with methanol, stained with Wright's stain and a differential leukocyte count was carried out.
# [5] = test system: PAF-induced eosinophil infiltration; assay: PAF-induced eosinophil infiltration in bronchoalveolar lavage fluid; format: in vivo, guinea-pigs; conditions: inhalation 0.1mg.ml^-1 30 min prior to PAF 100µg.ml^-1; 24 hours after challenge (PAF alone 97.7 ± 18.8, baseline 53.3 ± 12.5)
# Protocol: as §3
# [6] = Cavia porcellus, PMN, po, read-out: % Inhibition of PMN cell accumulation
SMILES,inhibitory effect on PMN cell accumulation ([1]; 10-100mg.kg^-1 p.o.),inhibitory effect on zymosan-induced PPE ([2]; 10-100mg.kg^-1 p.o.),"dose required for a comparable effect on granulocyte-independent PPE, relative to salmeterol ([3]; compared with salmeterol 10mg.kg^-1 p.o.)","ED50 (histamine-induced PPE; Cavia porcellus, po, 0.5 h, p.o., 30 min prior to histamine, read-out: ED50, inhibition of histamine-induced PPE) [mg/kg]",time after which there is substantial loss of activity against histamine induced PPE (histamine-induced PPE; equi-effective doses) [h],BALF neutrophil count [4],BALF eosinophil count [5],"inhibition at 1 mg/kg [1, 6] [%]","inhibition at 10 mg/kg [1, 6] [%]",% Inhibition of PMN cell accumulation ([1]; Intradermal 10^-8 (nmol.site^-1)) [%],% Inhibition of PMN cell accumulation ([1]; Intradermal 10^-9 (nmol.site^-1)) [%],"Zymosan-induced Granylocyte-dependent PPE ([2]; Intradermal 10^-8 (nmol.site^-1), co-administered with zymosan)","Zymosan-induced Granylocyte-dependent PPE ([2]; Intradermal 10^-9 (nmol.site^-1), co-administered with zymosan)","Zymosan-induced Granylocyte-dependent PPE ([2]; Oral 1.0 mg.kg^-1, 1 hour before zymosan 0.2mg.site^-1)","Zymosan-induced Granylocyte-dependent PPE ([2]; Oral 10.0 mg.kg^-1, 1 hour before zymosan 0.2mg.site^-1)","Histamine-induced Granulocyte Independent PPE ([3]; Oral 1.0 mg.kg^-1, 1 hour before histamine 100ng.site^-1)","Histamine-induced Granulocyte Independent PPE ([3]; Oral 10.0 mg.kg^-1, 1 hour before histamine 100ng.site^-1)","inhibition of histamine-induced PPE at the highest doses (histamine-induced PPE; aerosol, nebuliser concentration 0.001-1mg.ml^-1)"
"CC(C)(C)NCC(O)c1ccc(O)c(CO)c1 (stereo not drawn) [salbutamol, reference compound]",no significant inhibitory effect,no inhibitory effect,Approximately 10 fold,0.02,2,,,,,,,,,,,,,
"OCc1cc(C(O)CNCCCCCCOCCCCc2ccccc2)ccc1O (stereo not drawn) [salmeterol, 4-hydroxy-α^1-[[[6-(4-phenylbutoxy)hexyl]amino]methyl]-1,3-benzenedimethanol]",,,,,,46.8 ± 9.1 x10^3 cells.ml^-1,59.2 ± 19.8 x10^3 cells.ml^-1,27,59,51,16,51.7,1.8,47.0,56.0,9.2,58.5,complete inhibition
